Results on three compounds are retold here after patent US7875625B2, “Cyclohepta[b]pyridine-3-carbonylguanidine derivative and pharmaceutical product containing same” (Toa Eiyo Ltd., priority 2005, dated 2011).

Data set [1] has as its system male mice. Put plainly: Toxicity test with 2-days repeated intraperitoneal administration in mouse. It is filed as in vivo. The settings on record: equivalent of 300 mg/kg control compound intraperitoneally once a day for 2 days. Here is the method: For three male mice in each group, 300 mg/kg of the Control Compound (an amount calculated excluding salts), or an equivalent amount of the Inventive Compound 2, 4, 6, 7 or 12 were intraperitoneally administered once a day for 2 days, and a histopathological tests were performed. The Control Compound, and the Inventive Compounds 2, 4 and 6 were suspended in a 0.5% tragacanth gum solution, and the Inventive Compound 7 was suspended in a 10 DMSO-containing 0.5% tragacanth gum solution, while the Inventive Compound 12 was suspended in olive oil. For the histopathological test, in order to make a more thorough examination of central nervous toxicity, the brain was examined after whole body was subjected to perfusion fixation with a 4% formaldehyde in neutral phosphate buffer as a fixing solution using a liquid transporting pump under pentobarbital sodium anesthesia.

Data set [2] concerns Beagle dogs. The experiment in a line: Toxicity test after 4-days repeated intravenous administration in beagle dogs. The data set is classed as in vivo, dog. As to conditions: equivalent of 30 mg/kg control compound intravenously once a day for 4 days. Here is the method: With one male and one female dogs in each group, 30 mg/kg of the Control Compound dissolved in physiological saline (an amount calculated excluding salts), or an equivalent amount of the Inventive Compound 2, 4, 6 or 8 was repeatedly administered intravenously once a day for 4 days, and general symptom observation and pharmacological histopathologic examination were performed.

Data set [3] is described as follows: Comparative test for transferability to the brain in rat. It is filed as in vivo. As to conditions: male SD rats, 50 mg/kg via tail vein. Here is the method: To male SD rats (6 weeks old), the Control Compound or the Inventive Compound 2 was administered through the tail vein in an amount of 50 mg/kg. After administration, whole blood samples were collected over time from the abdominal aorta under etherization, and the brain tissues were extracted immediately. The brain tissues were lightly washed off to remove the blood attached around with physiological saline, and subsequently the tissues were frozen in liquid nitrogen and preserved at −30° C. until analyzed. The blood was centrifuged at 4° C. at a rotation speed of 15000 for 15 minutes to separate the supernatant plasma, and was preserved at −30° C. until analyzed. The brain tissues were thawed by standing at ambient temperature, and then the wet weight was measured. Distilled water was added in an amount five times of the wet weight, and a suspension was prepared using a Polytron homogenizer. The measurement of the test compound concentration in the plasma and the brain tissues was performed by LC/MS/MS. The transferability of the drug to the brain was calculated by dividing the drug concentration in the brain tissues by the plasma concentration obtained at the same time.

Data set [4] concerns reperfusion-induced arrhythmia upon myocardial ischemia. The experiment in a line: Reperfusion-induced arrhythmia inhibitory action test. It is filed as in vivo, rat. The settings on record: male SD rats, 1 mL/kg intravenous. Here is the method:
Subsequently, in evaluation of the in vivo NHE inhibitory action, the effect of the test compound on reperfusion-induced arrhythmia upon myocardial ischemia was evaluated according to the method of Aihara et al. [European Journal of Pharmacology, Vol. 404, p. 221-229 (2000)]. Under anesthesia using pentobarbital sodium (60 mg/kg, intraperitoneal administration), cannulae were inserted into trachea, femoral vein and carotid artery of male SD rats ([…]) for artificial ventilation, drug administration and blood pressure measurement, respectively. The blood pressure was measured using a strain pressure amplifier via a pressure transducer, while the heart rate was measured from the blood pressure pulse wave using a cardiotachometer. Furthermore, an electrocardiogram (lead II) was measured from the electrodes attached to each four limbs. Next, under artificial ventilation, left thoracotomy was performed and a snare (5-0 nylon) was loosely placed around a blood vessel which was about 3 mm apart from the origin of the left coronary artery. Thereafter, it was confirmed that arrhythmia was not occurred for 10 minutes, and then the snare was fastened to induce local myocardial ischemia. Furthermore, after 4 minutes of myocardial ischemia, the compound was intravenously administered for 1 minute, and after 5 minutes of myocardial ischemia, the snare was loosened, then the arrhythmia occurred after reperfusion was recorded and analyzed with an arrhythmia analyzer (Softron Co., Ltd.), thereby the anti-arrhythmic action of the compound was evaluated. […] The control group was administered with physiological saline.
With regard to the ventricular fibrillation (Vf) which occurred within 10 minutes after reperfusion (in the cases of halfway death, up to the time point where cardiac arrest was confirmed), arrhythmia analysis was performed according to the Guidelines for Lambeth Convention [Cardiovascular research, Vol. 22, p. 447-455, 1988], and evaluation was made in terms of the frequency of Vf occurrence, cumulative duration time of Vf, and the mortality.
The frequency of Vf occurrence, cumulative duration of Vf, and the mortality for the respective test compounds are presented in Table 2.

Data set [5] has as its target T1, Na^+/H^+ exchanger (NHE) (Rattus norvegicus, UniProt P26431).
T1 construct: from tissue; host or cells: platelet-rich plasma from Wistar rat blood
Put plainly: NHE inhibitory effect test (swelling of rat platelets induced by sodium propionate). It is filed as cell-based. As to conditions: rat platelet-rich plasma, sodium propionate buffer pH 6.7; 300 μM Amiloride taken as 100% inhibition; Probit method. The method, then: The NHE inhibitory activity was measured according to the method by Scholz et al. [British Journal of Pharmacology, Vol. 109, p. 562-568 (1993)], taking the swelling of rat platelets induced by sodium propionate as an index.
Under etherization, blood was collected (8 mL) from the abdominal aorta of a Wistar rat, and 1 mL of a citrate dextrose solution as an anticoagulant was added. The blood sample was immediately centrifuged at 90×g for 10 minutes, and then the collected supernatant was taken as platelet-rich plasma. Subsequently, to 250 μL of a 140 mM sodium propionate buffer solution containing the test compound dissolved in dimethylsulfoxide (pH 6.7, final dimethylsulfoxide concentration 1%), the platelet-rich plasma prepared in the above (number of platelet; 10×10^6/50 μL) was added, and the decrease in the absorbance associated with the swelling of platelets was measured over time with a Hematracer (NKK Corp.).
The rate of decrease in the absorbance at 20 seconds after the addition of the platelet-rich plasma was taken as the NHE activity, and the inhibitory activity of the respective compounds was expressed as a relative activity, while the action obtained upon addition of 300 μM of Amiloride was taken as 100% inhibition.
In addition, the test results were obtained by calculating the concentration at which the inhibitory activity of the test compound becomes 50% (IC50 value), by a Probit method.

The nature of data set [6]: Metabolic stability test in rat (generation of control compound in plasma). The data set is classed as in vivo. The settings on record: male SD rats; for Plasma concentration of the control compound, after 5 min / Plasma concentration of the control compound, after 15 min / Plasma concentration of the control compound, after 30 min / Plasma concentration of the control compound, after 60 min / Plasma concentration of the control compound, after 120 min: equivalent of 1 mg/kg control compound via tail vein, LC/MS/MS; for Decomposition into the Control Compound in vivo (in words): tail vein, plasma 5-120 min. An excerpt:
The compound represented by Formula (1) of the present invention has a structure in which the hydroxyl group on the 9-position of a 9-hydroxymethyl-cyclohepta[b]pyridine-3-carbonylguanidine derivative is converted to a specific substituent. However, if the compound is metabolized in vivo to remove the specific substituent from the compound, there may be generated the original 9-hydroxymethyl-cyclohepta[b]pyridine-3-carbonylguanidine derivative, which has toxic effects on the central nervous system. Thus, the inventive compounds as synthesized in Examples were administered in vivo to study whether the control compound, which was the corresponding 9-hydroxymethyl product, was generated.
Male SD rats (7 weeks old) were administered at 1 mg/kg (an amount calculated excluding salts) of the control compound, an equivalent amount of the Inventive Compound 2, 4, 6, 7 or 12, or Reference Compound 20, through the tail vein. After administration, about 0.2 mL of blood samples were collected after 5, 15, 30, 60 and 120 minutes, and the blood samples were centrifuged at 4° C. at a speed of rotation of 15000 for 15 minutes, thus to separate the supernatant plasma. The concentration of the control compound in the plasma was measured by LC/MS/MS. The measurement results were shown as +++ when the detected plasma concentration of the control compound is 200 ng/mL or greater; ++ for more than 100 ng/mL and less than 200 ng/mL; + for more than 20 ng/mL and less than 100 ng/mL; and − for less than 20 ng/mL or no detection.

Setting [7] is: 3.62 mmol/L, within 10 minutes after reperfusion.

T1 sequence (P26431 whole entry): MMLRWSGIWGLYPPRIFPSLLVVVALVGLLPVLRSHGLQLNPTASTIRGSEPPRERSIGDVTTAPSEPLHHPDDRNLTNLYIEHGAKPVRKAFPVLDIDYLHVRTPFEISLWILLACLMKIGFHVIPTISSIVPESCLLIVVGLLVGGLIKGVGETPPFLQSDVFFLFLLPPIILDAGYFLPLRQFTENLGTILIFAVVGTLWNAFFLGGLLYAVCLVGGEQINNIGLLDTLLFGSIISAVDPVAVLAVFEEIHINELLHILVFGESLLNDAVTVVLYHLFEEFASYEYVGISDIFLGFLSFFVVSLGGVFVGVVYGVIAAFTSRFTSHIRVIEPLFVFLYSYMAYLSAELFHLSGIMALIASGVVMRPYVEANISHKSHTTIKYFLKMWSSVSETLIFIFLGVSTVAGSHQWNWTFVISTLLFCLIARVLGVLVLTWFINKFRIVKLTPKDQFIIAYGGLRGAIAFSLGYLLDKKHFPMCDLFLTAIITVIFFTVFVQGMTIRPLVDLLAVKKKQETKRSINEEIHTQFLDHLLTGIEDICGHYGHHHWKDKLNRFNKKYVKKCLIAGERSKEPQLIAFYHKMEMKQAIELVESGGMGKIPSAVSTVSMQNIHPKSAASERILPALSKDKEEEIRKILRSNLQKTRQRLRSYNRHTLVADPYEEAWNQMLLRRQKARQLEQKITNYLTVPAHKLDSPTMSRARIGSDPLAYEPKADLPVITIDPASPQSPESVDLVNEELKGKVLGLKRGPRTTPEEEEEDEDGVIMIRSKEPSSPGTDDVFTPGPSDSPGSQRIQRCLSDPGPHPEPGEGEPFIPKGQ

The term IC50 denotes the point on the concentration scale where inhibition reaches its midpoint. Turning to `CS(=O)(=O)O.Cc1nc2c(cc1C(=O)NC(=N)N)CCCCC2CO` (stereo not shown) [Control Compound, 9-Hydroxymethyl-2-methyl-6,7,8,9-tetrahydro-5H-cyclohepta[b]pyridine-3-carbonylguanidine methanesulfonic acid salt, reference compound], the “Histopathological finding in the brain” value in data set [1] was “vacuolation was recognized in the cerebellar nuclei and vestibular nuclei”. Moreover, in data set [2], the “General condition (symptom observation)” value is “vomiting, salivation, and decreases in locomotor activity, staggering gait and ananastasia”; the “Pathologic examination of the brain” value was “necrosis/chromatolysis of nerve cells, swelling of axons and vacuolation of myelin sheath”. In addition, in data set [3] (15 min), the “Concentration Intracerebral/Plasma, after 15 min” value was 1.64. In addition, the “Concentration Intracerebral/Plasma, after 30 min” value in data set [3] (30 min) is given as 2.33. In data set [4] (setting [7]), the “Cumulative duration of Vf” value was found to be 30.2 s, the “Frequency of Vf occurrence” value is 50% and the Mortality is recorded as 25%. The IC50 in data set [5] was 33.4 nM. Moreover, in data set [6], the “Plasma concentration of the control compound, after 5 min” value (from here on “Plasma concentration … after 5 min”) is recorded as “+++ (+++ when the detected plasma concentration of the control compound is 200 ng/mL or greater)”; the “Plasma concentration of the control compound, after 15 min” value (“Plasma concentration … after 15 min” for short) was “++ (++ for more than 100 ng/mL and less than 200 ng/mL)”; the “Plasma concentration of the control compound, after 30 min” value (from here on “Plasma concentration … after 30 min”) is “+ (+ for more than 20 ng/mL and less than 100 ng/mL)”; the “Plasma concentration of the control compound, after 60 min” value (from here on “Plasma concentration … after 60 min”) is “+ (+ for more than 20 ng/mL and less than 100 ng/mL)”. Besides, the “Plasma concentration of the control compound, after 120 min” value (from here on “Plasma concentration … after 120 min”) in data set [6] is listed as “− (− for less than 20 ng/mL or no detection)”.
Consider `Cc1nc2c(cc1C(=O)NC(=N)N)CCCCC2CS(=O)(=O)[O-].[Na+]` (stereo not shown) [Inventive Compound 4, 3-Guanidinocarbonyl-2-methyl-6,7,8,9-tetrahydro-5H-cyclohepta[b]pyridin-9-ylmethanesulfonic acid sodium salt], for which, in data set [1], the “Histopathological finding in the brain” value is “any histologic finding which could be caused by drug administration was not recognized”. Further, in data set [2], the “General condition (symptom observation)” value was “only vomiting was recognized” and the “Pathologic examination of the brain” value is “any histologic finding which could be caused by drug administration was not recognized”. Also, in data set [4] (setting [7]), the “Cumulative duration of Vf” value is 25.3 s, the “Frequency of Vf occurrence” value is recorded as 60% and the Mortality was determined as 0%. For the same compound, the IC50 in data set [5] was determined as 211 nM. In data set [6], the “Plasma concentration … after 5 min” value is reported as “− (− for less than 20 ng/mL or no detection)”; the “Plasma concentration … after 15 min” value was “− (− for less than 20 ng/mL or no detection)”; the “Plasma concentration … after 30 min” value was “− (− for less than 20 ng/mL or no detection)”; the “Plasma concentration … after 60 min” value was “− (− for less than 20 ng/mL or no detection)”. Also, in data set [6], the “Plasma concentration … after 120 min” value is listed as “− (− for less than 20 ng/mL or no detection)” and the “Decomposition into the Control Compound in vivo (in words)” value is recorded as “not detected at any time point”.
Turning to `Cc1nc2c(cc1C(=O)NC(=N)N)CCCCC2COC(=O)NCCOS(=O)(=O)[O-].[Na+]` (stereo not shown) [Inventive Compound 6, 2-(3-Guanidinocarbonyl-2-methyl-6,7,8,9-tetrahydro-5H-cyclohepta[b]pyridin-9-ylmethyloxycarbonylamino)ethyl sulfate sodium salt], the “Histopathological finding in the brain” value in data set [1] is on record as “any histologic finding which could be caused by drug administration was not recognized”. In addition, in data set [2], the “General condition (symptom observation)” value is reported as “only vomiting was recognized” and the “Pathologic examination of the brain” value was “any histologic finding which could be caused by drug administration was not recognized”. In data set [4] (1.09 mmol/L, 5 animals), the “Cumulative duration of Vf” value was 23.3 s, the “Frequency of Vf occurrence” value is reported as 20% and the Mortality came out at 0%. Also, the IC50 in data set [5] was 142 nM. In data set [6], the “Plasma concentration … after 5 min” value is “− (− for less than 20 ng/mL or no detection)”; the “Plasma concentration … after 15 min” value is reported as “− (− for less than 20 ng/mL or no detection)”; the “Plasma concentration … after 30 min” value is reported as “− (− for less than 20 ng/mL or no detection)”; the “Plasma concentration … after 60 min” value is listed as “− (− for less than 20 ng/mL or no detection)”. In data set [6], the “Plasma concentration … after 120 min” value is “− (− for less than 20 ng/mL or no detection)” and the “Decomposition into the Control Compound in vivo (in words)” value is “not detected at any time point”.
